Numbered stars: 1 amine (or outer) side, 2 acyl side, 3 side chain; on linkers, the order of the positions; unused ones are H or OH. Square brackets hold non-standard residues; d marks the D form. Peptide text beside a SMILES is read from it. * marks the point of attachment. ξ: configuration not given here. Phe(4-CH2SO3H) = N[C@@H](Cc1ccc(CS(=O)(=O)O)cc1)C(=O)O; Phe(4-COOH) = N[C@@H](Cc1ccc(C(=O)O)cc1)C(=O)O; Phe(4-CH2NH2) = NCc1ccc(C[C@H](N)C(=O)O)cc1; Phe(4-CN) = N#Cc1ccc(C[C@H](N)C(=O)O)cc1; Phe(4-NH2) = Nc1ccc(C[C@H](N)C(=O)O)cc1; Dmt = Cc1cc(O)cc(C)c1C[C@H](N)C(=O)O; hPhe = N[C@@H](CCc1ccccc1)C(=O)O; ξβ2hAla = CC(CN[*:1])C(=O)[*:2]; Ac6c = NC1(C(=O)O)CCCCC1; Butyryl = CCCC(=O)*; Ahx = NCCCCCC(=O)O
Columns and labels:
human ORL1 [1] = molecular target: T1, human ORL1 (Homo sapiens, UniProt P41146); test: [3H]nociceptin binding to membranes of CHO cells transfected with human ORL1; conditions: Table 5
T1 construct: expressed in transfected cells; host or cells: CHO cells (G418-selected)
T1 sequence (P41146 whole entry): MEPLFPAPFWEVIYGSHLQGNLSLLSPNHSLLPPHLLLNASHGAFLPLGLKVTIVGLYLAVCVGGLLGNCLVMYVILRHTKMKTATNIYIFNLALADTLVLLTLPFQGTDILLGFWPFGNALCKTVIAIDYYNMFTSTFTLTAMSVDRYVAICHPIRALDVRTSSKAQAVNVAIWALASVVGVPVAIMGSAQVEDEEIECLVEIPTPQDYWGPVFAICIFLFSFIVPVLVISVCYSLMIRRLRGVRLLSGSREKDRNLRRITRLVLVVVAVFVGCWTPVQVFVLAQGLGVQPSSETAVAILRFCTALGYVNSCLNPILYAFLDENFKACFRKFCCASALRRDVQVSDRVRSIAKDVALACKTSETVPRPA

human ORL1 [2] = molecular target: T1, human ORL1; test: Stimulation of [35S]GTPγS binding in membranes of CHO cells transfected with human ORL-1; assay type: biochemical; conditions: for Emax: read-out: % Stimulation ± SEM of [35S]GTPγS binding; for EC50 ± SEM, stimulation of [35S]GTPγS binding: Table 6
Procedure: First, CHO cells transfected with human ORL-1 are scraped from tissue culture dishes into 20 mM HEPES, 1 mM EDTA, and then centrifuged at 500×g for 10 minutes. The cells are then re-suspended in this buffer and homogenized using a Polytron Homogenizer.
The cellular homogenate is next centrifuged at 20,000×g for 20 minutes. Following this, the resulting pellet is re-suspended in a buffer containing 20 mM HEPES, 10 mM MgCl2, and 100 mM NaCl, having a resulting pH of 7.4. The suspension is then re-centrifuged at 20,000×g and suspended once more in the above-listed buffer. The pellet may be frozen at −70° C. prior to the final centrifugation. For the binding assay, membranes (10-20 μg protein) are incubated with [^35S]GTPγγS (50 pM), GDP (usually 10 μM), and the desired compound. The total volume of the mixture is 1 ml, which is incubated for 60 min at 25° C.
Following incubation, samples are filtered over glass fiber filters and counted. […]
In these [^35S]GTPγS assays, binding was conducted as described above. EC50 values and percent stimulation were determined using the program Prism.

Compound | Hill Coefficient (human ORL1 [1]) | agonist/antagonist character at ORL1 (human ORL1 [2]; in words) | Emax (human ORL1 [2]) [%] | [35S]GTPγS Binding Percent Stimulation (human ORL1 [2]; Table 1, relative to nociceptin) [%] | EC50 ± SEM, stimulation of [35S]GTPγS binding (human ORL1 [2])
CC(=O)N[C@@H](CCCNC(=N)N)C(=O)N[C@@H](Cc1ccc(C#N)cc1)C(=O)N[C@@H](Cc1ccc(O)cc1)C(=O)N[C@@H](CCCNC(=N)N)C(=O)N[C@@H](Cc1c[nH]c2ccccc12)C(=O)N[C@@H](CCCNC(=N)N)C(N)=O [VII-43-C, Ac-Arg-Phe(4-CN)-Tyr-Arg-Trp-Arg-NH2] (Ac-R[Phe(4-CN)]YRWR-NH2) | 0.73 | partial agonist | 49.7 ± 6.6 |  | 
CCCC(=O)N[C@@H](CCCNC(=N)N)C(=O)N[C@@H](Cc1ccc(O)cc1)C(=O)N[C@@H](Cc1ccc(O)cc1)C(=O)N[C@@H](CCCNC(=N)N)C(=O)N[C@@H](Cc1c[nH]c2ccccc12)C(=O)N[C@@H](CCCNC(=N)N)C(N)=O [IV-15-A, Butryl-RYYRWR-NH2] (Butyryl-RYYRWR-NH2) |  |  |  | 63 | 
CC(=O)Nc1ccc(C[C@H](NC(=O)[C@H](Cc2ccc(O)cc2)NC(=O)[C@H](CCCNC(=N)N)NC(C)=O)C(=O)N[C@@H](CCCNC(=N)N)C(=O)N[C@@H](Cc2c[nH]c3ccccc23)C(=O)N[C@@H](CCCNC(=N)N)C(N)=O)cc1 [VII-77-A, Ac-Arg-Tyr-Phe(4-NHAc)-Arg-Trp-Arg-NH2] (Ac-RY[Phe(4-NH2)](Ac)RWR-NH2) | 0.62 |  | 19 ± 6.92 |  | 
CC(=O)N[C@@H](CCCNC(=N)N)C(=O)N[C@@H](Cc1ccc(O)cc1)C(=O)N[C@@H](Cc1ccc(CS(=O)(=O)O)cc1)C(=O)N[C@@H](CCCNC(=N)N)C(=O)N[C@@H](Cc1c[nH]c2ccccc12)C(=O)N[C@@H](CCCNC(=N)N)C(N)=O [VII-75-B, Ac-Arg-Tyr-Phe(4-CH2SO3H)-Arg-Trp-Arg-NH2] (Ac-RY[Phe(4-CH2SO3H)]RWR-NH2) | 0.75 |  | < 20 |  | FLAT
CC(=O)N[C@@H](CCCNC(=N)N)C(=O)N[C@@H](Cc1ccc(C(=O)O)cc1)C(=O)N[C@@H](Cc1ccc(O)cc1)C(=O)N[C@@H](CCCNC(=N)N)C(=O)N[C@@H](Cc1c[nH]c2ccccc12)C(=O)N[C@@H](CCCNC(=N)N)C(N)=O [VII-19-B, Ac-Arg-Phe(4-COOH)-Tyr-Arg-Trp-Arg-NH2] (Ac-R[Phe(4-COOH)]YRWR-NH2) | 1.0 |  | 45.5 ± 8 |  | 
N=C(N)NCCC[C@H](NC(=O)[C@H](Cc1c[nH]c2ccccc12)NC(=O)[C@H](CCCNC(=N)N)NC(=O)[C@H](Cc1ccc(O)cc1)NC(=O)[C@H](Cc1ccc(O)cc1)NC(=O)[C@H](CCCNC(=N)N)NC(=O)C1(N)CCCCC1)C(N)=O [VII-4-B, 1-aminocyclohexanoyl-Arg-Tyr-Tyr-Arg-Trp-Arg-NH2] (H-[Ac6c]RYYRWR-NH2) | 1.0 |  | < 20 |  | FLAT
CC(=O)N[C@@H](CCCNC(=N)N)C(=O)N[C@@H](Cc1ccc(O)cc1)C(=O)N[C@@H](Cc1c(C)cc(O)cc1C)C(=O)N[C@@H](CCCNC(=N)N)C(=O)N[C@@H](Cc1c[nH]c2ccccc12)C(=O)N[C@@H](CCCNC(=N)N)C(N)=O [VII-73-A, Ac-Arg-Tyr-Tyr(2,6-di-Me)-Arg-Trp-Arg-NH2] (Ac-RY[Dmt]RWR-NH2) | 0.95 |  | 52.7 ± 0.175 |  | 
CC(=O)N[C@@H](CCCNC(=N)N)C(=O)N[C@@H](CCc1ccccc1)C(=O)N[C@@H](CCc1ccccc1)C(=O)N[C@@H](CCCNC(=N)N)C(=O)N[C@@H](Cc1c[nH]c2ccccc12)C(=O)N[C@@H](CCCNC(=N)N)C(N)=O [VII-49-B, Ac-Arg-hPhe-hPhe-Arg-Trp-Arg-NH2] (Ac-R[hPhe][hPhe]RWR-NH2) | 0.94 |  | < 20 |  | FLAT
CC(CN)C(=O)N[C@@H](CCCNC(=N)N)C(=O)N[C@@H](Cc1ccc(O)cc1)C(=O)N[C@@H](Cc1ccc(O)cc1)C(=O)N[C@@H](CCCNC(=N)N)C(=O)N[C@@H](Cc1c[nH]c2ccccc12)C(=O)N[C@@H](CCCNC(=N)N)C(N)=O (stereo partly drawn) [VII-3-A, β-aminoisobutryl-Arg-Tyr-Tyr-Arg-Trp-Arg-NH2] (ξβ2hAla-RYYRWR-NH2) | 0.72 |  | 29.1 ± 1.9 |  | 
CC(=O)N[C@@H](CCCNC(=N)N)C(=O)N[C@@H](Cc1ccc(O)cc1)C(=O)N[C@@H](Cc1ccc(O)cc1)C(=O)N[C@@H](CCCNC(=N)N)C(=O)N[C@@H](Cc1c[nH]c2ccccc12)C(=O)NCCCCCC(N)=O [VII-57-C, Ac-Arg-Tyr-Tyr-Arg-Trp-ε-aminocaproyl-NH2] (Ac-RYYRW[Ahx]-NH2) | 0.95 |  | 37.4 ± 2.64 |  | 
CC(=O)N[C@@H](CCCNC(=N)N)C(=O)N[C@@H](Cc1ccc(O)cc1)C(=O)N[C@@H](Cc1ccc(CN)cc1)C(=O)N[C@@H](CCCNC(=N)N)C(=O)N[C@@H](Cc1c[nH]c2ccccc12)C(=O)N[C@@H](CCCNC(=N)N)C(N)=O [VII-79-A, Ac-Arg-Tyr-Phe(4-CH2NH2)-Arg-Trp-Arg-NH2] (Ac-RY[Phe(4-CH2NH2)]RWR-NH2) | 0.89 |  | < 20 |  | FLAT
Ac-Arg-Phe(SO3H)-Tyr-Arg-Trp-Arg-NH2 (Ac-R[Phe(SO3H)]YRWR-NH2) [VII-27-B] | 1.12 |  |  |  | 

Source: patent publication US7863416B2, “Nociceptin-based analgesics” (Synvax, Inc., priority 2001, dated 2011)
